From patent US4279912A, “Novel imidazoquinolines” (Roussel Uclaf, priority 1977, dated 1981)
Counter-ions that a name gives are not always drawn. Like-named read-outs stand apart in the source and are kept apart here.

Test system: Passive cutaneous anaphylaxis (PCA)
Assay: Passive cutaneous anaphylaxis (PCA) in rats
Type: in vivo
Conditions: Rattus norvegicus
From the text: Cutaneous anaphylaxis can be induced in rats by intradermal (ID) sensitization with antiserum followed three days later by systemic challenge with antigen. Evans blue dye injected with the antigen is used as a marker to assess the severity of the local response. Anti-allergic drugs inhibit this reaction. This method has been described by OVARY (1962) "[…] Cutaneous Anaphylaxis in Allergology" Page 358-367 Ed. Brown: Pergamon Press:-male rats weighing 180-220 grams are used in groups of seven. […] 1. Wash 120 grams of Al(OH)3 gel in 140 ml of saline (use of a macerater facilitates mixing). 2. Centrifuge at 3,000 r.p.m. for about 10 minutes. 3. Resuspend the precipitate with 300 ml of albumen egg powder (1.3 mg/ml) in saline and allow to stand for 30 minutes. 4. Centrifuge at 3,000 r.p.m. for 10 minutes. 5. Weigh the wet precipitate and to each gram weight add 1 ml of saline. Store in refrigerator (Quantity sufficient for 60 rats for a 3 day sensitization program). […] 1 ml of the alum precipitated ovalbumen was injected subcutaneously into rats weighing 180-220 grams on days 0,2,4. The rats were bled on day 14 either by cardiac puncture or via the dorsal abdominal aorta. Equal quantities of serum from each animal were pooled and thoroughly mixed and 2 ml aliquots were stored at -20° C. in plastic tubes. Serum Dilution for PCA The antiserum for sensitization was diluted so that an ID injection of 0.1 ml into control animals would give an average score of a single spot of between 2.0-3.5 using a 4 point scoring system. Method (A) SENSITIZATION: The rats were anaesthetized with Nembutal (40-60 mg/kg i.p.) and were then sensitized by four ID injections (0.1 ml each) on their shaved backs. The animals were then left for a period of three days to develop sensitization. (B) […]: The sensitized rats were dosed orally or intraveneously with the drug immediately prior to intraveneous challenge via the superficial penile vein with 1 ml of an antigen/Evans blue mixture (1 mg albumen egg powder in 0.5 ml saline plus 0.5 ml of 1% Evans blue). The injections were speeded up by using an automatic 1 ml self-filling glass syringe. The "challenged" rats were killed after 30 minutes, (usually pithed) and their skin on the dorsal surface was removed. The degree and area of blueing, proportional to the anaphylactic reaction was assessed on a four point scoring system. Calculations 1. Total scores for sites 1,2,3 and 4=X 2. Mean value of X for each group=X 3. X t=X for test group X c=X for control group [formula] 5. […] ED50 values for the compounds tested in the passive cutaneous anaphylaxis screen (in rats) are as follows: […]

[1] = read-out: ED50 (dose of drug giving 50% inhibition), i.v., intravenous dosing immediately prior to antigen/Evans blue challenge
[2] = read-out: ED50 (dose of drug giving 50% inhibition), p.o., oral dosing immediately prior to antigen/Evans blue challenge

| Compound | ED50 [1] | ED50 [2] |
| --- | --- | --- |
| COc1cc2nc(C(=O)O)cn2c2ccccc12 [Example 4, THAM salt of 5-methoxyimidazo-[1,2-a]-quinoline-2-carboxylic acid] | 0.57 mg/kg | 3.74 mg/kg |
| O=C(O)c1cn2c(ccc3ccc(Cl)cc32)n1 [Example 10, sodium 8-chloroimidazo-[1,2-a]-quinoline-2-carboxylate] | 0.069 mg/kg | 0.11 mg/kg |
| O=C(O)c1cn2c(cc(Br)c3ccccc32)n1 [Example 26, 5-bromoimidazo-[1,2-a]-quinoline-2-carboxylic acid] | 0.046 mg/kg | 0.14 mg/kg |
| CC(C)Oc1cc2nc(C(=O)O)cn2c2ccccc12 [Example 8, 5-isopropoxyimidazo-[1,2-a]-quinoline-2-carboxylic acid hydrochloride] | 0.12 mg/kg | 1.13 mg/kg |
| O=C(O)c1cn2c(cc(Cl)c3ccccc32)n1 [Example 6, 5-chloroimidazo-[1,2-a]-quinoline-2-carboxylic acid hydrochloride] | 0.0075 mg/kg | 0.47 mg/kg |
| COc1ccc2c(ccc3nc(C(=O)O)cn32)c1 [Example 28, 7-methoxyimidazo-[1,2-a]-quinoline-2-carboxylic acid] | 0.03 mg/kg | – |
| CC(C)Oc1cc2nc(C(=O)O)cn2c2cc(Cl)ccc12 [Example 18, 8-chloro-5-isopropoxyimidazo-[1,2-a]-quinoline-2-carboxylic acid] | 0.027 mg/kg | 0.34 mg/kg |
| COc1ccc2c(OC)cc3nc(C(=O)O)cn3c2c1 [Example 12, 5,8-dimethoxyimidazo-[1,2-a]-quinoline-2-carboxylic acid] | 1.22 mg/kg | – |
| CCOC(=O)c1cn2c(cc(Cl)c3ccccc32)n1 [Example 5, ethyl 5-chloroimidazo-[1,2-a]-quinoline-2-carboxylate] | – | 0.096 mg/kg |
| O=C(OCCN1CCCCC1)c1cn2c(ccc3ccccc32)n1 [Example 35, 2-piperidinoethyl imidazo-[1,2-a]-quinoline-2-carboxylate] | 0.42 mg/kg | – |
| CCOC(=O)c1cn2c(ccc3ccc(Cl)cc32)n1 [Example 9, ethyl 8-chloroimidazo-[1,2-a]-quinoline-2-carboxylate] | – | 1.72 mg/kg |
| O.O=C(O)c1cn2c(ccc3cc(Cl)ccc32)n1 [Example 24, 7-chloroimidazo-[1,2-a]-quinoline-2-carboxylic acid monohydrate] | 0.29 mg/kg | – |
| O=C(O)c1cn2c(cc(Cl)c3ccc(Cl)cc32)n1 [Example 22, 5,8-dichloroimidazo-[1,2-a]-quinoline-2-carboxylic acid] | 0.023 mg/kg | 0.033 mg/kg |
| O=C(O)c1cn2c(cc(Cl)c3ccc(Br)cc32)n1 [Example 32, 8-bromo-5-chloroimidazo-[1,2-a]-quinoline-2-carboxylic acid] | 0.025 mg/kg | 0.08 mg/kg |
| O=C(O)c1cn2c(ccc3ccccc32)n1 [Example 2, imidazo-[1,2-a]-quinoline-2-carboxylic acid hydrochloride] | 0.29 mg/kg | 0.63 mg/kg |
| COc1ccc2ccc3nc(C(=O)O)cn3c2c1 [Example 20, 8-methoxyimidazo-[1,2-a]-quinoline-2-carboxylic acid] | 0.038 mg/kg | 0.14 mg/kg |
| COc1ccc2c(Cl)cc3nc(C(=O)O)cn3c2c1.Cl [Example 16, 5-chloro-8-methoxyimidazo-[1,2-a]-quinoline-2-carboxylic acid hydrochloride] | 0.016 mg/kg | 0.27 mg/kg |
| COc1ccc2c(OC(C)C)cc3nc(C(=O)O)cn3c2c1 [Example 14, 8-methoxy-5-isopropoxyimidazo-[1,2-a]-quinoline-2-carboxylic acid] | 0.091 mg/kg | ~10 mg/kg |
